Experimental data taken from article PMC8953385, “2-Styrylchromones: Cytotoxicity and Modulation of Human Neutrophils’ Oxidative Burst” (Pharmaceuticals, 2022).

Assays:
[1] = Annexin V/PI flow cytometric assay of neutrophils’ viability; format: cell-based, human; conditions: human, isolated human neutrophils, pH 7.4, representative plot, Figure 4, read-out: Viable cells [annexin V (−)/PI (−)], lower left quadrant
Excerpt: (§1) Following the Declaration of Helsinki and the approval of patient-related procedures and protocols by the Ethics Committee of Centro Hospitalar do Porto, Portugal, venous blood was collected from healthy human blood donors, after informed consent. The blood was stored into K3EDTA vacuum tubes after antecubital venipuncture of the donors. In order to obtain the isolated neutrophils, the density gradient centrifugation method was applied, as previously reported, with modifications. In brief, in a 15 mL polypropylene tube, 3 mL of histopaque 1119 were added followed by 3 mL of histopaque 1077 and finally, 4.5 mL of the collected blood were slowly added. Each tube was centrifuged at 900× g at 20 °C for 30 min, with a medium acceleration and deceleration speed. Following centrifugation, the neutrophils’ portion was harvested, and PBS was added to double the volume. The neutrophils’ suspension was then centrifuged at 850× g at 4 °C for 5 min, using a maximum acceleration and deceleration speed. The supernatant was discarded, and the neutrophils’ pellet was resuspended in PBS and afterward milli-Q water was added to lyse the residual erythrocytes. The tube was gently homogenized and after a few minutes, 3% NaCl was added to restore isotony, and then centrifuged again at 850× g at 4 °C for 5 min, using a maximum acceleration and deceleration speed. The supernatant was discarded, and a neutrophils’ pellet was obtained. After isolation, the neutrophils’ pellet was resuspended in the incubation media, tris-glucose buffer (25 mM Trizma® base, 5.5 mM D-glucose, 140 mM NaCl, 1.26 mM CaCl2, 0.81 mM MgSO4, 5.37 mM KCl, pH = 7.4). Neutrophils’ suspension was kept on ice, under soft shaking, until use. The trypan blue exclusion method was used to determine cells’ yield and viability.
(§2) The effect of the studied 2-SC on neutrophils’ viability was assessed by flow cytometry, after simultaneous staining with FITC Annexin V and propidium iodide (PI) (Figure S1), as previously reported by our research group, with modifications. After isolation, neutrophils (1 × 10^6 cells/mL) were incubated with 2-SC (up to 100.00 μM) or DMSO for 40 min, at 37 °C, in a 48-well plate. At the end of incubation, the content of each well was transferred to conical microtubes and centrifuged at 400× g at 20 °C for 5 min. After discarding the supernatant, the neutrophils’ pellet was resuspended in PBS and centrifuged under the previous conditions. Once the supernatant was removed, the pellet was resuspended in 10× diluted binding buffer, and then PI and annexin V were added. This mixture was incubated in the dark at room temperature for 15 min, and finally, 10× diluted binding buffer was added. In a flow cytometer, the fluorescence signal, of at least 10,000 cells/sample, were collected in logarithmic mode and followed in channels 1 and 3. The green fluorescence corresponding to annexin V FITC was accompanied in channel 1 and plotted as a histogram of FL1 staining, whereas the fluorescence corresponding to PI was monitored in channel 3 and plotted in the same histogram but as FL3 staining. The collected data were analyzed with the BD Accuri™ C6 software. The data analysis was restricted to the neutrophils’ population. Thus, according to the light-scattering properties of neutrophils (in a forward versus side scatter plot), a polygon gate was drawn, where debris and other blood cells were excluded. The effect of 2-SC on neutrophils’ viability was expressed as a relative percentage of apoptotic and/or necrotic cells when compared to the control (without 2-SC).

human neutrophils = experiment: as above; format: cell-based; conditions: for Higher 2-SC concentration that did not affect human neutrophils’ viability: annexin V/PI assay, 40 min incubation at 37 °C
Excerpt: as §1, §2

[2] = system: human neutrophils’ oxidative burst; experiment: Neutrophils’ oxidative burst, PMA stimulation, luminol chemiluminescence; format: cell-based; conditions: Homo sapiens, Neutrophil
Excerpt: as §1
The effect of 2-SC on the modulation of neutrophils’ oxidative burst was assessed after the stimulation of these cells with PMA by monitoring the oxidation of chemiluminescent probe, luminol, by the generated reactive species (Figure S2), according to a previously described methodology. Briefly, neutrophils (1 × 10^6 cells/mL) were pre-incubated with luminol (500.00 μM), and 2-SC (0.00–100.00 μM) or DMSO, at the final concentrations indicated. After this pre-incubation, at 37 °C for 5 min, PMA (160.00 nM) was added, and in turn, neutrophils’ stimulation was initiated. Kinetic readings were immediately initiated and followed for 40 min, at 37 °C, in a microplate reader. The arbitrary chemiluminescence value was taken at the peak of the curve, and the results were expressed as the inhibition percentage of luminol oxidation.
GraphPad Prism 6 software was used to plot the curves of percentage of inhibition versus concentrations of compound, from which the concentration that produces 50% of inhibition (IC50) was determined. GraphPad Prism 6 software was also used to perform all statistical analyses. […] In all cases, p-values < 0.05 were considered statistically significant. The results are expressed as mean ± standard error of the mean (SEM).

[3] = O2•−, cited from earlier work

Row | IC50 ([2]; PMA 160.00 nM, luminol 500.00 μM, mean ± SEM, read-out: IC50, inhibition of human neutrophils’ oxidative burst) [nM] | SMILES | viability at 40 min, 25 µM ([1]; 25.00 μM) [%] | viability at 40 min, 50 µM ([1]; 50.00 μM) [%] | Effect on total neutrophils’ population percentage (human neutrophils; 50.00 μM) | Induction of late apoptosis (human neutrophils; 50.00 μM) | Higher 2-SC concentration that did not affect human neutrophils’ viability (human neutrophils) [µM] | inhibition at 25 µM ([2]; 25.00 µM (highest tested concentration), read-out: Inhibitory activity (% ± SEM), neutrophils’ oxidative burst) [%] | Scavenging of reactive species ([3]; H2O2, HOCl, 1O2, •NO, ONOO−) | Scavenging activity of reactive species ([3]; 1O2, •NO and ONOO−)
1 |  | O=c1cc(/C=C/c2ccccc2)oc2cc(O)cc(O)c12 [A4] | 88.4 | 63.8 | significantly affected the total neutrophils’ population percentage | induced late apoptosis | 25.00 | < 30 |  | 
2 |  | O=c1cc(/C=C/c2ccc(O)cc2)oc2cccc(O)c12 [B2] |  |  |  |  | 6.25 |  | much less active or inactive | 
3 | 1400 ± 200 | COc1ccc(/C=C/c2cc(=O)c3ccc(O)c(O)c3o2)cc1OC [C8] |  |  |  |  | 6.25 |  |  | good scavenging activity
